# Measured values taken from article PMC6748952, “Identification, Functional Characterization, and Pharmacological Analysis of Two Sulfakinin Receptors in the Medically-Important Insect Rhodnius prolixus” (Scientific Reports, 2019).
# Entries after “also recorded” stand apart in the source; their conditions may differ. Where no end group is shown, it is not given here.
# Legend:
# Rhopr-SKR-2 [1] = experiment: Second messenger pathway assay (PLC inhibitor U73122 or EGTA), Rhopr-SKR-2 in HEK293/CNG cells; format: cell-based, Rhodnius prolixus; conditions: for EC50: 3 replicates, read-out: EC50, luminescence response; for luminescence response: with 10 μM U73122 (10 minutes incubation)
# Procedure: (§1) To test whether cAMP and/or Ca^2+ are the second messengers for Rhopr-SKR-1 and Rhopr-SKR-2, HEK293/CNG cells were transfected with each receptor, as previously mentioned, then split into cells that were suspended in calcium-free DMEM with the extracellular calcium chelator EGTA (10 μM) or cells treated with the PLC inhibitor U73122 (10 μM) (Sigma Aldrich, Oakville, ON, Canada). […] HEK293/CNG cells with receptors that work via the Ca^2+ pathway would be unable to evoke luminescence in the presence of U73122. The modified CNG channel in HEK293/CNG causes extracellular Ca^2+ to flow into the cell upon an increase in cytoplasmic cAMP levels. Receptors that solely work through the cAMP pathway would be unable to produce a response in calcium-free media with EGTA. Moreover, receptors that work via both Ca^2+ and cAMP would elicit a response in the presence of either U73122 or EGTA in calcium-free media.
# (§2) HEK293/CNG cells were used via the same protocol as previously stated. Luminescence was measured in 5-second intervals for a total of 30 seconds. In the first set of experiments, the transfected cells were incubated in 10 μM of U73122 for 10 minutes prior to measuring luminescence in response to the addition of sulfated Rhopr-SK-1 or Rhopr-SK-2. To confirm the viability of the utilized cells, media in 1.5% Triton X-100 served as a positive control. In the second set of experiments, cells were suspended in calcium-free DMEM (Thermo Fisher Scientific, Waltham, MA, USA) with 10 μM of the extracellular calcium chelator EGTA. Here, luminescence was measured in response to sulfated Rhopr-SK-1 or Rhopr-SK-2 in calcium-free DMEM in the presence of EGTA. A batch of cells that was also pre-incubated in calcium-free DMEM with EGTA were then washed, incubated in regular DMEM, and then tested in response to sulfated Rhopr-SK-1 and […]. Forskolin, which is a stimulator of adenylate cyclase, and the cAMP analog dibutyryl cAMP (dbcAMP) were utilized as controls to confirm the expression of functional CNG channels in the HEK293/CNG cells. ATP served as a positive control. GraphPad Prism version 8.00 (https://www.graphpad.com) was used to analyze the bioluminescence results.
# Rhopr-SKR-1 [2] = experiment: Second messenger pathway assay (PLC inhibitor U73122 or EGTA), Rhopr-SKR-1 in HEK293/CNG cells; format: cell-based, Rhodnius prolixus; conditions: for luminescence response of control agents: cells expressing Rhopr-SKR-1, confirms functional CNG channels (Fig. S4); for EC50: 3 replicates, read-out: EC50, luminescence response; for luminescence response: with 10 μM U73122 (10 minutes incubation)
# Procedure: as §1, §2
# PLC pathway = conditions: HEK293/CNG cell line; cited from earlier work
# Procedure: To test whether cAMP and/or Ca^2+ are the second messengers for Rhopr-SKR-1 and Rhopr-SKR-2, HEK293/CNG cells were transfected with each receptor, as previously mentioned, then split into cells that were suspended in calcium-free DMEM with the extracellular calcium chelator EGTA (10 μM) or cells treated with the PLC inhibitor U73122 (10 μM) (Sigma Aldrich, Oakville, ON, Canada). […] HEK293/CNG cells with receptors that work via the Ca^2+ pathway would be unable to evoke luminescence in the pre ...
# Rhopr-SKR-2 [3] = experiment: Functional receptor assay (aequorin bioluminescence), Rhopr-SKR-2 transiently expressed in HEK293/CNG cells; format: cell-based, Rhodnius prolixus; conditions: for luminescence response / activation (in words) / EC50: HEK293/CNG, first 5-second interval, 3 replicates; for EC50: aequorin luminescence, coelenterazine h 5 μM, read-out: EC50, luminescence response
# Procedure: (§3) An aequorin luminescence assay was utilized in order to measure Ca^2+ signaling in HEK293/CNG cells stably expressing a modified cyclic nucleotide-gated (CNG) channel. The cells were grown in Dulbecco’s Modified Eagle Medium Nutrient Mixture F12-Ham (DMEM/F-12) (Thermo Fisher Scientific, Waltham, MA, USA), with 1% penicillin/streptomycin, 10% fetal bovine serum (FBS), and 100 μg/mL G418 (Geneticin). The HEK293/CNG cells were consistently grown in vented T75 flasks and inclubated at 37 °C in 5% CO2. After reaching approximately 95% confluency, the mammalian cells were transiently co-transfected with the pIRES2-ZsGreen1 expression vector (containing Rhopr-SKR-1 or Rhopr-SKR-2) and the cytoplasmic luminescent reporter aequorin via X-tremeGENE^TM HP DNA Transfection Reagent (Roche Applied Science, Penzberg, Germany). Transfections were performed at a 2:1 ratio for the transfection reagent to the expression vectors. Cells transiently transfected with empty pIRES2-ZsGreen1 expression vectors served as a negative control. The cells were then incubated at 37 °C in 5% CO2 for 72 hours prior to performing the bioluminescence assay.
# (§4) The bioluminescence assay was performed as previously described. At 72 hours post-transfection, the HEK293/CNG cells were harvested from the T75 flasks using a PBS with ethylenediaminetetraacetic acid (EDTA) solution then suspended in a bovine serum albumin (BSA) media (DMEM/F-12 with 1% penicillin/streptomycin and 1% BSA). Prior to the functional assay, the cells were incubated in coelenterazine h (Promega, Madison, WI, USA) to a 5 μM final concentration, and then incubated for 4 hours whilst stirring in the dark. The cells were then diluted 8-fold via BSA media. Rhopr-SK-1 and Rhopr-SK-2 (as well as nonsulfated Rhopr-SK-1) were prepared in BSA media then plated in duplicates on 96-well plates, with 50 μL of the cells then automatically injected into each of these wells via a Perkin Elmer Wallac 1420 Victor2 plate reader (Perkin Elmer, San Diego, CA, USA). The reader was used to measure luminescence response in consecutive five-second intervals (15 seconds in total). An extended Rhopr-FMRFamide (GNDNFMRFamide), tachykinin (Rhopr-TK-2), and Rhopr-Kinin-2 were used as controls to test for specificity. ATP was used as a positive control. HEK293/CNG cells transfected with empty pIRES2-ZsGreen1 vectors served as negative controls.
# Rhopr-SKR-1 [4] = experiment: Functional receptor assay (aequorin bioluminescence), Rhopr-SKR-1 transiently expressed in HEK293/CNG cells; format: cell-based, Rhodnius prolixus; conditions: for luminescence response / activation (in words) / EC50: HEK293/CNG, first 5-second interval, 3 replicates; for EC50: aequorin luminescence, coelenterazine h 5 μM, read-out: EC50, luminescence response
# Procedure: as §3, §4
# HEK293/CNG cells = experiment: Negative control: HEK293/CNG cells transfected with empty pIRES2-ZsGreen1 plasmids; format: cell-based, human; conditions: empty pIRES2-ZsGreen1 (not shown)
# Procedure: as §3, with “Cells transiently transfected with empty pIRES2-ZsGreen1 expression vectors served as a negative control. The cells were then incubated at 37 °C in 5% CO2 for 72 hours prior to performing the bioluminescence assay.” left out
# The bioluminescence assay was performed as previously described. […] Rhopr-SK-1 and Rhopr-SK-2 (as well as nonsulfated Rhopr-SK-1) were prepared in BSA media then plated in duplicates on 96-well plates, with 50 μL of the cells then automatically injected into each of these wells via a Perkin Elmer Wallac 1420 Victor2 plate reader (Perkin Elmer, San Diego, CA, USA). The reader was used to measure luminescence response in consecutive five-second intervals (15 seconds in total). […]
# R. prolixus = conditions: peptide injection; cited from earlier work
# Source text: Silencing of SKs via RNAi has been linked to stimulation in the intake of food in G. bimaculatus[28] and T. castaneum. Additionally, RNAi-induced silencing of each of the transcripts for the two SKRs in T. castaneum led an increase of food intake by approximately 20% for SKR1[25] and 50% for SKR2[29]. […] In the present study, the transcript coding for Rhopr-SK-1 and Rhopr-SK-2 as well as the ...
# [5] = absence of EGTA, media containing calcium
# [6] = absence of U73122, media containing calcium
# [7] = presence of EGTA (10 μM), calcium-free DMEM
# [8] = Rhopr-SKR-1, absence of EGTA, media containing calcium
# [9] = Rhopr-SKR-1, absence of U73122, media containing calcium
# [10] = Rhopr-SKR-1, presence of EGTA (10 μM), calcium-free DMEM
compound,measurement,setting,value
"Nc1ncnc2c1ncn2[C@@H]1O[C@H](COP(=O)(O)OP(=O)(O)OP(=O)(O)O)[C@@H](O)[C@H]1O [ATP, reference compound]","bioluminescent response of ATP, positive control",Rhopr-SKR-2 [1]; all conditions (not shown),elicited the expected positive bioluminescent response
same,"bioluminescent response of ATP, positive control","Rhopr-SKR-1 [2]; Rhopr-SKR-1, all conditions (not shown)",elicited the expected positive bioluminescent response
"O=C(O)CN(CCOCCOCCN(CC(=O)O)CC(=O)O)CC(=O)O [EGTA, ethylene glycol-bis(β-aminoethyl ether)-N,N,N′,N′-tetraacetic acid, reference compound]",effect of EGTA on luminescence induced by Rhopr-SK-1 and Rhopr-SK-2,Rhopr-SKR-2 [1]; calcium-free media containing EGTA (10 μM),does not abolish the luminescence induced by Rhopr-SK-1 and Rhopr-SK-2
same,effect of EGTA on luminescence induced by Rhopr-SK-1 and Rhopr-SK-2,"Rhopr-SKR-1 [2]; Rhopr-SKR-1, calcium-free media containing EGTA (10 μM)",does not abolish the luminescence induced by Rhopr-SK-1 and Rhopr-SK-2
"COc1ccc2c(c1)CC[C@@H]1[C@@H]2CC[C@]2(C)[C@@H](NCCCCCCN3C(=O)C=CC3=O)CC[C@@H]12 [U73122, reference compound]",effect of U73122 on luminescence response to Rhopr-SK-1 and Rhopr-SK-2,Rhopr-SKR-2 [1]; 10 μM,abolished the luminescence response to Rhopr-SK-1 and Rhopr-SK-2
same,effect of U73122 on luminescence response to Rhopr-SK-1 and Rhopr-SK-2,"Rhopr-SKR-1 [2]; Rhopr-SKR-1, 10 μM",abolished the luminescence response to Rhopr-SK-1 and Rhopr-SK-2
same,inhibition of PLC pathway,PLC pathway,successfully inhibit the PLC pathway
"CCCC(=O)Nc1ncnc2c1ncn2[C@@H]1O[C@@H]2COP(=O)(O)O[C@H]2[C@H]1OC(=O)CCC [dibutyryl-cAMP, reference compound]",luminescence response of control agents,Rhopr-SKR-1 [2],elicited luminescence responses
"C=C[C@@]1(C)CC(=O)[C@]2(O)[C@@]3(C)[C@@H](O)CCC(C)(C)[C@@H]3[C@H](O)[C@H](OC(C)=O)[C@@]2(C)O1 [forskolin, reference compound]",luminescence response of control agents,Rhopr-SKR-1 [2],elicited luminescence responses
"AKFSSWG-NH2 [Rhopr-Kinin-2, R. prolixus kinin, control for specificity, reference compound]",luminescence response / activation (in words),Rhopr-SKR-2 [3],little to no response
same,luminescence response / activation (in words),Rhopr-SKR-1 [4],little to no response
"APSTMGFQGVR-NH2 [Rhopr-TK-2, R. prolixus tachykinin, control for specificity, reference compound]",luminescence response / activation (in words),Rhopr-SKR-2 [3],little to no response
same,luminescence response / activation (in words),Rhopr-SKR-1 [4],little to no response
"GGSDEKFDDY(SO3H)GYMRFamide [Rhopr-SK-2, native R. prolixus sulfakinin 2, custom synthesized]",luminescence of Rhopr-SK-2 vs Rhopr-SK-1,"Rhopr-SKR-2 [3]; 1 × 10^−6 M, one way ANOVA, Tukey, ***P < 0.001, 3 replicates",lower
same,EC50,Rhopr-SKR-2 [3],0.101 nM
same,luminescence response / activation (in words),Rhopr-SKR-2 [3],"activated by sulfated Rhopr-SK-1 and sulfated Rhopr-SK-2 in a dose-dependent manner; also recorded: partial, though potent ligand"
same,EC50,Rhopr-SKR-2 [1]; [5],0.134 nM
same,EC50,Rhopr-SKR-2 [1]; [6],0.121 nM
same,EC50,Rhopr-SKR-2 [1]; [7],0.314 nM
same,luminescence response,Rhopr-SKR-2 [1],unable to elicit a response
same,luminescence in empty-vector cells,HEK293/CNG cells,no luminescence
same,EC50,Rhopr-SKR-1 [2]; [8],6.86 nM
same,EC50,Rhopr-SKR-1 [2]; [9],13.3 nM
same,EC50,Rhopr-SKR-1 [2]; [10],30.2 nM
same,luminescence response,Rhopr-SKR-1 [2]; Rhopr-SKR-1,unable to elicit a response
same,EC50,Rhopr-SKR-1 [4],8.69 nM
same,luminescence response / activation (in words),Rhopr-SKR-1 [4],"activated by sulfated Rhopr-SK-1 and sulfated Rhopr-SK-2 in a dose-dependent manner; also recorded: partial, though potent ligand"
"GNDNFMRF-NH2 [extended Rhopr-FMRFamide, control for specificity, reference compound]",luminescence response / activation (in words),Rhopr-SKR-2 [3],little to no response
same,luminescence response / activation (in words),Rhopr-SKR-1 [4],little to no response
"pQFNEY(SO3H)GHMRFamide [Rhopr-SK-1, native R. prolixus sulfakinin 1, custom synthesized]",potency of Rhopr-SK-1 relative to Rhopr-SK-2,Rhopr-SKR-2 [3],similar
same,EC50,Rhopr-SKR-2 [3],0.144 nM
same,luminescence response / activation (in words),Rhopr-SKR-2 [3],"activated by sulfated Rhopr-SK-1 and sulfated Rhopr-SK-2 in a dose-dependent manner; also recorded: full, and potent ligand"
same,EC50,Rhopr-SKR-2 [1]; [5],0.214 nM
same,EC50,Rhopr-SKR-2 [1]; [6],0.103 nM
same,EC50,Rhopr-SKR-2 [1]; [7],0.344 nM
same,luminescence response,Rhopr-SKR-2 [1],unable to elicit a response
same,luminescence in empty-vector cells,HEK293/CNG cells,no luminescence
same,size of blood meal,R. prolixus,took smaller blood meals
same,EC50,Rhopr-SKR-1 [2]; [8],0.294 nM
same,EC50,Rhopr-SKR-1 [2]; [9],0.317 nM
same,EC50,Rhopr-SKR-1 [2]; [10],0.44 nM
same,luminescence response,Rhopr-SKR-1 [2]; Rhopr-SKR-1,unable to elicit a response
same,potency of Rhopr-SK-1 relative to Rhopr-SK-2,Rhopr-SKR-1 [4],one order of magnitude more potent than Rhopr-SK-2
same,EC50,Rhopr-SKR-1 [4],0.532 nM
same,luminescence response / activation (in words),Rhopr-SKR-1 [4],"activated by sulfated Rhopr-SK-1 and sulfated Rhopr-SK-2 in a dose-dependent manner; also recorded: full, and potent ligand"
